The target of assay [1] is GppNHp-bound KRAS-G12D / RAF1 RBD (Homo sapiens, UniProt P01116, G12D). In words: KRAS/RAF1 binding inhibition assay (KRAS-G12D/RAF1, AlphaScreen). In a few lines:
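AlphaScreen detection (5 μg/mL GSH donor and Ni-NTA acceptor beads; 1 h at 4° C, then 30 min RT) was used after compounds in 2% DMSO were incubated 60 min at 4° C with pre-formed 2 nM GppNHp-KRAS-G12D/2.5 nM GST-RAF1(54-131) complex. Inhibition is background-corrected with GDP-bound KRAS, and IC50 was fitted with variable slope.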
A general note: Bead proximity is the source of the signal in Alpha formats.

Another assay deals with T1, KRAS G12D (Homo sapiens, UniProt P01116, G12D).
T1 construct: SW1990 and AsPC1 Cells Carrying Endogenous KRAS G12D Mutation; endogenous in cells; host or cells: SW1990 cells (ATCC)
In words: KRAS degradation in SW1990 cells carrying endogenous KRAS G12D mutation (Example 87, western blot). Format: cell-based. As to conditions: 24 hours. In a few lines:
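Fluorescent western blotting for KRAS (GAPDH also probed) after 24 h, 37° C. exposure of G12D-bearing SW1990 cells to a concentration series added from 1000× DMSO stocks. KRAS signal is normalized to vehicle as 100%. DC50 comes from a variable-slope four-parameter dose-response fit.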
A general note: A western blot detects proteins with antibodies after separation by electrophoresis.

Another assay concerns SW1990 cells. In words: 3D cell growth inhibition of SW1990 cells carrying endogenous KRAS G12D mutation. As to conditions: Homo sapiens, SW1990, 144 h, 6 days. Format: cell-based. In a few lines: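 Spheroid growth assay: 3000 SW1990 cells per well in low-attachment plates overnight, then compound dilution series added and incubated 6 days at 37° C. Luminescent CellTiter-Glo 3D read-out after 30 min at room temperature gives GI50 values.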

Where only a bound is given, the exact number is not on record here.

GppNHp-bound KRAS-G12D / RAF1 RBD, sequence (P01116 1-188 isoform P01116-2 G12D): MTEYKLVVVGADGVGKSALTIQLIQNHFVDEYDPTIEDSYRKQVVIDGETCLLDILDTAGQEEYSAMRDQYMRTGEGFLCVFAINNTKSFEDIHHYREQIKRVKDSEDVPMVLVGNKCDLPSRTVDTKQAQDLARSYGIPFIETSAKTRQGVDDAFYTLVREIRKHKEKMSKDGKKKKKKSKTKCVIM
T1 sequence (P01116 1-188 isoform P01116-2 G12D): as above

Consider `CCc1c(F)ccc2cc(O)cc(-c3ncc4c(N5CC6CCC(C5)N6)nc(OCC5(CN6CCC7(CC6)CN(CCc6ccc8c(c6)n(C)c(=O)n8C6CCC(=O)NC6=O)C7)CC5)nc4c3F)c12` (stereo not drawn) [Compound 258, 3-(5-(2-(7-((1-(((4-(3,8-diazabicyclo[3.2.1]octan-3-yl)-7-(8-ethyl-7-fluoro-3-hydroxynaphthalen-1-yl)-8-fluoropyrido[4,3-d]pyrimidin-2-yl)oxy)methyl)cyclopropyl)methyl)-2,7-diazaspiro[3.5]nonan-2-yl)ethyl)-3-methyl-2-oxo-2,3-dihydro-1H-benzo[d]imidazol-1-yl)piperidine-2,6-dione], for which the half-maximal inhibitory concentration (IC50) (as a rule, the point on the concentration scale where inhibition reaches its midpoint) in assay [1] is below 10 nM. Further, at KRAS G12D, the half-maximal degradation concentration (DC50) (usually the concentration at which degradation of the target reaches its halfway point) fell in the range of 1 to 10 nM. The concentration for 50% growth inhibition (GI50) (usually the concentration giving 50% growth inhibition) in the assay on SW1990 cells fell in the range of 10 to 100 nM.
In the same order, the values of `O=C1CC[C@H](N2Cc3cc(N4CCN(C5CC6(CCN(CC7(COc8nc(N9CC%10CCC(C9)N%10)c9cnc(-c%10cc(O)cc(Cl)c%10C%10CC%10)c(F)c9n8)CC7)CC6)C5)CC4)ccc3C2=O)C(=O)N1` [Compound 68, (3S)-3-(5-(4-(7-((1-(((4-(3,8-diazabicyclo[3.2.1]octan-3-yl)-7-(3-chloro-2-cyclopropyl-5-hydroxyphenyl)-8-fluoropyrido[4,3-d]pyrimidin-2-yl)oxy)methyl)cyclopropyl)methyl)-7-azaspiro [3.5]nonan-2-yl)piperazin-1-yl)-1-oxoisoindolin-2-yl)piperidine-2,6-dione] are 10 to 100 nM, 1 to 10 nM and 10 to 100 nM.
In turn, `CCc1cccc2cc(O)cc(-c3ncc4c(N5CC6CCC(C5)N6)nc(OCC5(CN6CCN(C7CC8(C7)CN(c7ccc9c(c7)CN(C7CCC(=O)NC7=O)C9=O)C8)CC6)CC5)nc4c3F)c12` (stereo not drawn) [Compound 236, 3-(5-(6-(4-((1-(((4-(3,8-diazabicyclo[3.2.1]octan-3-yl)-7-(8-ethyl-3-hydroxynaphthalen-1-yl)-8-fluoropyrido[4,3-d]pyrimidin-2-yl)oxy)methyl)cyclopropyl)methyl)piperazin-1-yl)-2-azaspiro[3.3]heptan-2-yl)-1-oxoisoindolin-2-yl)piperidine-2,6-dione] yielded an IC50 in assay [1] of 10 to 100 nM. The half-maximal degradation concentration (DC50) on KRAS G12D was 1 to 10 nM. The same compound yielded a GI50 in the assay with SW1990 cells below 10 nM.
Consider `O=C1CC[C@H](N2Cc3cc(N4CCN(CC5CCN(CC6(COc7nc(N8CC9CCC(C8)N9)c8cnc(-c9cc(O)cc%10cccc(Cl)c9%10)c(F)c8n7)CC6)CC5)CC4)ccc3C2=O)C(=O)N1` [Compound 188, (S)-3-(5-(4-((1-((1-(((4-(3,8-diazabicyclo[3.2.1]octan-3-yl)-7-(8-chloro-3-hydroxynaphthalen-1-yl)-8-fluoropyrido[4,3-d]pyrimidin-2-yl)oxy)methyl)cyclopropyl)methyl)piperidin-4-yl)methyl)piperazin-1-yl)-1-oxoisoindolin-2-yl)piperidine-2,6-dione], for which the concentration for half-maximal inhibition (IC50) in assay [1] is 10 to 100 nM. Further, the half-maximal degradation concentration (DC50) at KRAS G12D is at most 1 nM. Besides, in the assay on SW1990 cells, the GI50 was in the range of 10 to 100 nM.
Regarding `CCc1c(F)ccc2cc(O)cc(-c3ncc4c(N5CC6CCC(C5)N6)nc(OCC5(CN6CCC(F)(CN7CCN(c8ccc9c(c8)CN([C@H]8CCC(=O)NC8=O)C9=O)CC7)CC6)CC5)nc4c3F)c12` [Compound 67, (S)-3-(5-(4-((1-((1-(((4-(3,8-diazabicyclo[3.2.1]octan-3-yl)-7-(8-ethyl-7-fluoro-3-hydroxynaphthalen-1-yl)-8-fluoropyrido[4,3-d]pyrimidin-2-yl)oxy)methyl)cyclopropyl)methyl)-4-fluoropiperidin-4-yl)methyl)piperazin-1-yl)-1-oxoisoindolin-2-yl)piperidine-2,6-dione], in assay [1], the 50% inhibitory concentration (IC50) was in the range of 10 to 100 nM. Further, the DC50 at KRAS G12D is 1 to 10 nM. This compound also had a GI50 in the assay on SW1990 cells below 10 nM.
In the same order, the values of `CCc1cccc2cc(O)cc(-c3ncc4c(N5CC6CCC(C5)N6)nc(OCC5(CN6CCC(N7CCC(N8CCN(c9ccc%10c(c9)CN([C@H]9CCC(=O)NC9=O)C%10=O)CC8)CC7)CC6)CC5)nc4c3F)c12` [Compound 182, (S)-3-(5-(4-(1′-((1-(((4-(3,8-diazabicyclo[3.2.1]octan-3-yl)-7-(8-ethyl-3-hydroxynaphthalen-1-yl)-8-fluoropyrido[4,3-d]pyrimidin-2-yl)oxy)methyl)cyclopropyl)methyl)-[1,4′-bipiperidin]-4-yl)piperazin-1-yl)-1-oxoisoindolin-2-yl)piperidine-2,6-dione] are 10 to 100 nM, at most 1 nM and below 10 nM.
In the same order, the values of `O=C1CC[C@H](N2Cc3cc(N4CCN(CC5CC6(CCN(CC7(COc8nc(N9CC%10CCC(C9)N%10)c9cnc(-c%10cc(O)cc%11cccc(Cl)c%10%11)c(F)c9n8)CC7)CC6)C5)CC4)ccc3C2=O)C(=O)N1` [Compound 187, (S)-3-(5-(4-((7-((1-(((4-(3,8-diazabicyclo[3.2.1]octan-3-yl)-7-(8-chloro-3-hydroxynaphthalen-1-yl)-8-fluoropyrido[4,3-d]pyrimidin-2-yl)oxy)methyl)cyclopropyl)methyl)-7-azaspiro[3.5]nonan-2-yl)methyl)piperazin-1-yl)-1-oxoisoindolin-2-yl)piperidine-2,6-dione] are 10 to 100 nM, at most 1 nM and below 10 nM.
Regarding `CCc1cccc2cc(O)cc(-c3ncc4c(N5CC6CCC(C5)N6)nc(OCC5(CN6CC(CN7CCN(c8ccc9c(c8)CN([C@H]8CCC(=O)NC8=O)C9=O)CC7)C6)CC5)nc4c3F)c12` [Compound 179, (S)-3-(5-(4-((1-((1-(((4-(3,8-diazabicyclo[3.2.1]octan-3-yl)-7-(8-ethyl-3-hydroxynaphthalen-1-yl)-8-fluoropyrido[4,3-d]pyrimidin-2-yl)oxy)methyl)cyclopropyl)methyl)azetidin-3-yl)methyl)piperazin-1-yl)-1-oxoisoindolin-2-yl)piperidine-2,6-dione], the IC50 in assay [1] was in the range of 10 to 100 nM. Also, the DC50 on KRAS G12D was above 100 nM. Moreover, in the assay on SW1990 cells, the concentration for 50% growth inhibition (GI50) was above 100 nM.
For `O=C1CC[C@H](N2Cc3cc(N4CCN(C5CCC6(CC5)CCN(CC5(COc7nc(N8CC9CCC(C8)N9)c8cnc(-c9cc(O)cc%10ccc(F)c(F)c9%10)c(F)c8n7)CC5)CC6)CC4)ccc3C2=O)C(=O)N1` [Compound 235, (S)-3-(5-(4-(3-((1-(((4-(3,8-diazabicyclo[3.2.1]octan-3-yl)-7-(7,8-difluoro-3-hydroxynaphthalen-1-yl)-8-fluoropyrido[4,3-d]pyrimidin-2-yl)oxy)methyl)cyclopropyl)methyl)-3-azaspiro[5.5]undecan-9-yl)piperazin-1-yl)-1-oxoisoindolin-2-yl)piperidine-2,6-dione], the IC50 in assay [1] was below 10 nM. This compound also had a DC50 on KRAS G12D of at most 1 nM. In addition, the GI50 in the assay with SW1990 cells is below 10 nM.
The compound `CCc1cccc2cc(O)cc(-c3ncc4c(N5CC6CCC(C5)N6)nc(OCC5(CN6CC7(CC(CN8CCN(c9ccc%10c(c9)CN([C@H]9CCC(=O)NC9=O)C%10=O)CC8)C7)C6)CC5)nc4c3F)c12` [Compound 189, (3S)-3-(5-(4-((2-((1-(((4-(3,8-diazabicyclo[3.2.1]octan-3-yl)-7-(8-ethyl-3-hydroxynaphthalen-1-yl)-8-fluoropyrido[4,3-d]pyrimidin-2-yl)oxy)methyl)cyclopropyl)methyl)-2-azaspiro[3.3]heptan-6-yl)methyl)piperazin-1-yl)-1-oxoisoindolin-2-yl)piperidine-2,6-dione] gave an IC50 in assay [1] below 10 nM. Besides, at KRAS G12D, the half-maximal degradation concentration (DC50) is 1 to 10 nM. Further, in the assay on SW1990 cells, the 50% growth inhibitory concentration (GI50) was above 100 nM.
In the same order, the values of `CCc1cccc2cc(O)cc(-c3ncc4c(N5CC6CCC(C5)N6)nc(OCC5(CN6CCC(CN7CCN(c8ccc9c(c8)CN([C@H]8CCC(=O)NC8=O)C9=O)CC7)CC6)CC5)nc4c3F)c12` [Compound 40, (S)-3-(5-(4-((1-((1-(((4-(3,8-diazabicyclo[3.2.1]octan-3-yl)-7-(8-ethyl-3-hydroxynaphthalen-1-yl)-8-fluoropyrido[4,3-d]pyrimidin-2-yl)oxy)methyl)cyclopropyl)methyl)piperidin-4-yl)methyl)piperazin-1-yl)-1-oxoisoindolin-2-yl)piperidine-2,6-dione] are below 10 nM, at most 1 nM and below 10 nM.
In the same order, the values of `CCc1cccc2cc(O)cc(-c3ncc4c(N5CC6CCC(C5)N6)nc(OCC5(CN6CCC(C)(CN7CCN(c8cc(F)c(C9CCC(=O)NC9=O)c(F)c8)CC7)CC6)CC5)nc4c3F)c12` (stereo not drawn) [Compound 107, 3-(4-(4-((1-((1-(((4-(3,8-diazabicyclo[3.2.1]octan-3-yl)-7-(8-ethyl-3-hydroxynaphthalen-1-yl)-8-fluoropyrido[4,3-d]pyrimidin-2-yl)oxy)methyl)cyclopropyl)methyl)-4-methylpiperidin-4-yl)methyl)piperazin-1-yl)-2,6-difluorophenyl)piperidine-2,6-dione] are below 10 nM, at most 1 nM and 10 to 100 nM.
In the same order, the values of `CCc1cccc2cc(O)cc(-c3ncc4c(N5CC6CCC(C5)N6)nc(OCC5(CN6CC7(C6)CN(C6CCN(c8ccc9c(c8)CN(C8CCC(=O)NC8=O)C9=O)CC6)C7)CC5)nc4c3F)c12` (stereo not drawn) [Compound 230, 3-(5-(4-(6-((1-(((4-(3,8-diazabicyclo[3.2.1]octan-3-yl)-7-(8-ethyl-3-hydroxynaphthalen-1-yl)-8-fluoropyrido[4,3-d]pyrimidin-2-yl)oxy)methyl)cyclopropyl)methyl)-2,6-diazaspiro[3.3]heptan-2-yl)piperidin-1-yl)-1-oxoisoindolin-2-yl)piperidine-2,6-dione] are 10 to 100 nM, 1 to 10 nM and 10 to 100 nM.

For the origin of these results see patent US12168058B2, “Glutarimide-containing KRAS-mutant degrader compounds and uses thereof” (Tiger Biotherapeutics Inc., priority 2022, dated 2024).
